Test results: patent US20240270740A1, “INHIBITORS OF CYCLIC GMP-AMP SYNTHASE AND USES THEREOF” (Ventus Therapeutics U.S., Inc., priority 2022, published 2024)

How the values were obtained:
[1] = molecular target: T1, hcGAS (Homo sapiens, UniProt Q8N884); experiment: hcGAS Kinase-Glo assay (ATP depletion); assay type: biochemical; conditions: 40 nM hcGAS, 100 μM ATP, 100 μM GTP, 25 nM dsDNA, 3 h incubation
Experimental: cGAS catalyzes the cyclization of ATP and GTP to produce cGAMP, which is the activating ligand of STING. Human cGAS (hcGAS) inhibition can thus be quantified by measuring how much cGAMP is formed either indirectly, by monitoring ATP-depletion as in the hcGAS Kinase-Glo assay (as described below), or directly, such as using the hcGAS LCMS assay (as described below).
(i) hcGAS Kinase-Glo Assay
Compounds were tested for their human-cGAS […] inhibition activity using the methodology reported in Lama et al., “Development of human cGAS-specific small molecule inhibitors for repression of dsDNA-triggered interferon expression”, Nature Communications 10, Article number: 2261 (2019), with slight changes to some conditions as shown in Table B.
The results of the assay, expressed in IC50 values, are reported in Table D with the following designations: A represents an IC50 value<0.01 μM; B represents an IC50 value≥0.01 μM and <0.03 μM; C represents an IC50 value≥0.03 μM and <0.1 μM; D represents an IC50 value≥0.1.

[2] = molecular target: T1, hcGAS; experiment: hcGAS LCMS assay (direct measurement of cGAMP production); assay type: biochemical; conditions: 0.5 nM hcGAS, 100 μM ATP, 100 μM GTP, 25 nM dsDNA, 4 h incubation
How it was run: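 Direct LC/MS readout of cGAMP formed: 4-h enzyme–substrate incubation with compound, stopped by acetonitrile/water quench carrying isotope-labelled cGAMP (0.15 mM) as standard. Potency reported as IC50 ranges.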

T1 sequence (Q8N884 whole entry): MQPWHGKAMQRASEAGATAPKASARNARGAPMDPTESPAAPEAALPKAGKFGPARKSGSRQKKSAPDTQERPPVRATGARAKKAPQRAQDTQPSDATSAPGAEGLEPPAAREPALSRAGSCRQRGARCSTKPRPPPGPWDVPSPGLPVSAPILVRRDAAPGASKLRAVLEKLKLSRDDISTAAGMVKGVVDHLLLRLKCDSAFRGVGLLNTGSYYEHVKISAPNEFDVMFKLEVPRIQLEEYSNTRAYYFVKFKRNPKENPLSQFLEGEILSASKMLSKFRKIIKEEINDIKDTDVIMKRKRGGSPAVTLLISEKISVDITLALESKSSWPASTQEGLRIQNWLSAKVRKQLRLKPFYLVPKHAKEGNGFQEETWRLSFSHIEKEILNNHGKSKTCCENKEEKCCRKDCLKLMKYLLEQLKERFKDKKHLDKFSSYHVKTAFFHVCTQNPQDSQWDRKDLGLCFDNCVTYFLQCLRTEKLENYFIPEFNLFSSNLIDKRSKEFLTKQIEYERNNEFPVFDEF

| SMILES | IC50 [1] | IC50 [2] |
| --- | --- | --- |
| COc1c(N[C@H]2CC[C@@H](OC)C2)cc(C(=O)Nc2nnc(-n3nccc3C)s2)oc1=O (racemic) [Rac-108, 3-methoxy-4-(((cis)-3-methoxycyclopentyl)amino)-N-(5-(5-methyl-1H-pyrazol-1-yl)-1,3,4-thiadiazol-2-yl)-2-oxo-2H-pyran-6-carboxamide] | 10 to 30 nM | 5 to 20 nM |
| COc1c(N[C@H]2CC[C@H](OC)C2)cc(C(=O)Nc2nnc(-n3nccc3C)s2)oc1=O (racemic) [Rac-109, 3-methoxy-4-(((trans)-3-methoxycyclopentyl)amino)-N-(5-(5-methyl-1H-pyrazol-1-yl)-1,3,4-thiadiazol-2-yl)-2-oxo-2H-pyran-6-carboxamide] | 10 to 30 nM | 5 to 20 nM |
| COc1c(N[C@H]2CCC[C@H]2O)cc(C(=O)Nc2nnc(-c3c(Cl)ccn3C)s2)oc1=O (racemic) [Rac-188, N-(5-(3-chloro-1-methyl-1H-pyrrol-2-yl)-1,3,4-thiadiazol-2-yl)-4-(((1S,2R)-2-hydroxycyclopentyl)amino)-3-methoxy-2-oxo-2H-pyran-6-carboxamide] | < 10 nM | < 5 nM |
| COc1c(N[C@H]2CCCC[C@H]2O)cc(C(=O)Nc2nnc(-n3nccc3C)s2)oc1=O (racemic) [Rac-189, 4-(((1S,2R)-2-hydroxycyclohexyl)amino)-3-methoxy-N-(5-(5-methyl-1H-pyrazol-1-yl)-1,3,4-thiadiazol-2-yl)-2-oxo-2H-pyran-6-carboxamide] | 10 to 30 nM | 5 to 20 nM |
| COC[C@@H]1CCN(c2cc(C(=O)Nc3nnc(-n4nccc4C)s3)oc(=O)c2OC)C1 [Compound 1, (R)-3-methoxy-4-(3-(methoxymethyl)pyrrolidin-1-yl)-N-(5-(5-methyl-1H-pyrazol-1-yl)-1,3,4-thiadiazol-2-yl)-2-oxo-2H-pyran-6-carboxamide] | 10 to 30 nM | 5 to 20 nM |
| COc1c(N2CC[C@@H](S(C)(=O)=O)C2)cc(C(=O)Nc2nnc(-n3nccc3C)s2)oc1=O [Compound 8, (R)-3-methoxy-N-(5-(5-methyl-1H-pyrazol-1-yl)-1,3,4-thiadiazol-2-yl)-4-(3-(methylsulfonyl)pyrrolidin-1-yl)-2-oxo-2H-pyran-6-carboxamide] | 10 to 30 nM | 5 to 20 nM |
| COCC(COC)Nc1cc(C(=O)Nc2nnc(-n3nccc3C)s2)oc(=O)c1OC [Compound 10, 4-((1,3-dimethoxypropan-2-yl)amino)-3-methoxy-N-(5-(5-methyl-1H-pyrazol-1-yl)-1,3,4-thiadiazol-2-yl)-2-oxo-2H-pyran-6-carboxamide] | 10 to 30 nM | 5 to 20 nM |
| COc1c(N[C@H]2CC[C@H](OC)CC2)cc(C(=O)Nc2nnc(-n3nccc3C)s2)oc1=O [Compound 11, 3-methoxy-4-(((1,4-trans)-4-methoxycyclohexyl)amino)-N-(5-(5-methyl-1H-pyrazol-1-yl)-1,3,4-thiadiazol-2-yl)-2-oxo-2H-pyran-6-carboxamide] | 10 to 30 nM | 20 to 60 nM |
| COc1c(N2CC[C@@H](O)C2)cc(C(=O)Nc2nnc(-n3nccc3C)s2)oc1=O [Compound 30, (R)-4-(3-hydroxypyrrolidin-1-yl)-3-methoxy-N-(5-(5-methyl-1H-pyrazol-1-yl)-1,3,4-thiadiazol-2-yl)-2-oxo-2H-pyran-6-carboxamide] | 10 to 30 nM | 5 to 20 nM |
| COc1c(N2CC[C@@H](OC)C2)cc(C(=O)Nc2nnc(-n3nccc3C)s2)oc1=O [Compound 31, (R)-5-methoxy-4-(3-methoxypyrrolidin-1-yl)-N-(5-(5-methyl-1H-pyrazol-1-yl)-1,3,4-thiadiazol-2-yl)-6-oxo-6H-pyran-2-carboxamide] | 10 to 30 nM | 5 to 20 nM |
| COc1c(NCC(C)(C)O)cc(C(=O)Nc2nnc(-n3nccc3C)s2)oc1=O [Compound 33, 4-(2-hydroxy-2-methylpropylamino)-5-methoxy-N-(5-(5-methyl-1H-pyrazol-1-yl)-1,3,4-thiadiazol-2-yl)-6-oxo-6H-pyran-2-carboxamide] | 10 to 30 nM | 20 to 60 nM |
| COC[C@H]1CCCN1c1cc(C(=O)Nc2nnc(-n3nccc3C)s2)oc(=O)c1OC [Compound 38, (R)-3-methoxy-4-(2-(methoxymethyl)pyrrolidin-1-yl)-N-(5-(5-methyl-1H-pyrazol-1-yl)-1,3,4-thiadiazol-2-yl)-2-oxo-2H-pyran-6-carboxamide] | 10 to 30 nM | 5 to 20 nM |
| COc1c(NC23CC(C2)C3)cc(C(=O)Nc2nnc(-c3c(Cl)ccn3C)s2)oc1=O [Compound 41, 4-{bicyclo[1.1.1]pentan-1-ylamino}-N-[5-(3-chloro-1-methylpyrrol-2-yl)-1,3,4-thiadiazol-2-yl]-5-methoxy-6-oxopyran-2-carboxamide] | < 10 nM | < 5 nM |
| COc1c(N2CCCC2=O)cc(C(=O)Nc2nnc(-n3nccc3C)s2)oc1=O [Compound 42, 3-methoxy-N-(5-(5-methyl-1H-pyrazol-1-yl)-1,3,4-thiadiazol-2-yl)-2-oxo-4-(2-oxopyrrolidin-1-yl)-2H-pyran-6-carboxamide] | < 10 nM | < 5 nM |
| COc1c(N2CC[C@H](OC)C2)cc(C(=O)Nc2nnc(-n3nccc3C)s2)oc1=O [Compound 57, (S)-3-methoxy-4-(3-methoxypyrrolidin-1-yl)-N-(5-(5-methyl-1H-pyrazol-1-yl)-1,3,4-thiadiazol-2-yl)-2-oxo-2H-pyran-6-carboxamide] | 10 to 30 nM | 5 to 20 nM |
| COc1c(N2C[C@H](OC)[C@H](OC)C2)cc(C(=O)Nc2nnc(-n3nccc3C)s2)oc1=O [Compound 59, 4-((3S,4R)-3,4-dimethoxypyrrolidin-1-yl)-3-methoxy-N-R(5-(5-methyl-1H-pyrazol-1-yl)-1,3,4-thiadiazol-2-yl)-2-oxo-2H-pyran-6-carboxamide] | 10 to 30 nM | 5 to 20 nM |
| COc1c(N2CC[C@H](S(C)(=O)=O)C2)cc(C(=O)Nc2nnc(-n3nccc3C)s2)oc1=O [Compound 60, (S)-3-methoxy-N-(5-(5-methyl-1H-pyrazol-1-yl)-1,3,4-thiadiazol-2-yl)-4-(3-(methylsulfonyl)pyrrolidin-1-yl)-2-oxo-2H-pyran-6-carboxamide] | 10 to 30 nM | 5 to 20 nM |
| COc1c(N[C@H]2CCS(=O)(=O)C2)cc(C(=O)Nc2nnc(-n3nccc3C)s2)oc1=O [Compound 62, (S)-4-((1,1-dioxidotetrahydrothiophen-3-yl)amino)-3-methoxy-N-(5-(5-methyl-1H-pyrazol-1-yl)-1,3,4-thiadiazol-2-yl)-2-oxo-2H-pyran-6-carboxamide] | 10 to 30 nM | 5 to 20 nM |
| COC[C@H](C)Nc1cc(C(=O)Nc2nnc(-n3nccc3C)s2)oc(=O)c1OC [Compound 64, (S)-3-methoxy-4-((1-methoxypropan-2-yl)amino)-N-(5-(5-methyl-1H-pyrazol-1-yl)-1,3,4-thiadiazol-2-yl)-2-oxo-2H-pyran-6-carboxamide] | 30 to 100 nM | 20 to 60 nM |
| COc1c(NC[C@@H]2CCCO2)cc(C(=O)Nc2nnc(-n3nccc3C)s2)oc1=O [Compound 66, (S)-3-methoxy-N-(5-(5-methyl-1H-pyrazol-1-yl)-1,3,4-thiadiazol-2-yl)-2-oxo-4-(((tetrahydrofuran-2-yl)methyl)amino)-2H-pyran-6-carboxamide] | 10 to 30 nM | 5 to 20 nM |
| COCCNc1cc(C(=O)Nc2nnc(-n3nccc3C)s2)oc(=O)c1OC [Compound 75, 3-methoxy-4-((2-methoxyethyl)amino)-N-(5-(5-methyl-1H-pyrazol-1-yl)-1,3,4-thiadiazol-2-yl)-2-oxo-2H-pyran-6-carboxamide] | 30 to 100 nM | 5 to 20 nM |
| COCC(C)(C)Nc1cc(C(=O)Nc2nnc(-n3nccc3C)s2)oc(=O)c1OC [Compound 76, 3-methoxy-4-((1-methoxy-2-methylpropan-2-yl)amino)-N-(5-(5-methyl-1H-pyrazol-1-yl)-1,3,4-thiadiazol-2-yl)-2-oxo-2H-pyran-6-carboxamide] | 10 to 30 nM | 5 to 20 nM |
| COc1c(NCc2ccccc2)cc(C(=O)Nc2nnc(-n3nccc3C)s2)oc1=O [Compound 103, 4-(benzylamino)-3-methoxy-N-(5-(5-methyl-1H-pyrazol-1-yl)-1,3,4-thiadiazol-2-yl)-2-oxo-2H-pyran-6-carboxamide] | 30 to 100 nM | 5 to 20 nM |
| COc1c(N(C)C)cc(C(=O)Nc2nnc(-n3nccc3C)s2)oc1=O [Compound 106, 4-(dimethylamino)-3-methoxy-N-(5-(5-methyl-1H-pyrazol-1-yl)-1,3,4-thiadiazol-2-yl)-2-oxo-2H-pyran-6-carboxamide] | 30 to 100 nM | 20 to 60 nM |
| COc1c(N2CC[C@H](O)C2)cc(C(=O)Nc2nnc(-n3nccc3C)s2)oc1=O [Compound 110, (S)-4-(3-hydroxypyrrolidin-1-yl)-3-methoxy-N-(5-(5-methyl-1H-pyrazol-1-yl)-1,3,4-thiadiazol-2-yl)-2-oxo-2H-pyran-6-carboxamide] | 10 to 30 nM | 5 to 20 nM |
